# Literature values as cited in patent US8034838B2, “Composition and method for the treatment of neurological disorders” (priority 2008, dated 2011).
# Experiments:
# [1] = after administration
# β-secretase = β-secretase (Homo sapiens, UniProt P56817)
# Chain of β-secretase (P56817 46-501): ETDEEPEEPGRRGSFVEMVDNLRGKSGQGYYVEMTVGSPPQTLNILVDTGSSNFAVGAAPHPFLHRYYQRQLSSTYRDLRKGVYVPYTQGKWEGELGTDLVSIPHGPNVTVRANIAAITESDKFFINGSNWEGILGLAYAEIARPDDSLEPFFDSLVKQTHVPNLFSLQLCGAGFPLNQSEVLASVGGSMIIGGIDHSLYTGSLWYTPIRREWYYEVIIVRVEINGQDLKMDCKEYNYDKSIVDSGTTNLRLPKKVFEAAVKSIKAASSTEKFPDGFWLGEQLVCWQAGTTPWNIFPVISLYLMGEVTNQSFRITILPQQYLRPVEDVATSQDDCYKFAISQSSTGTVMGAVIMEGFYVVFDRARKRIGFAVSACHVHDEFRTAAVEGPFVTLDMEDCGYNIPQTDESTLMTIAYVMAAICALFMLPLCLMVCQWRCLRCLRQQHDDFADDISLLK
structure (smiles),measurement,setting,value
"O=c1c(O)c(-c2cc(O)c(O)c(O)c2)oc2cc(O)cc(O)c12 [myricetin, Myricetin]",regulation of γ-secretase,γ-secretase,down-regulates
same,time to cross the blood brain barrier,[1],≤ 30 min
same,regulation of α-secretase,α-secretase,up-regulates
same,regulation of β-secretase,β-secretase,down-regulates
